Laboratory results: ChEMBL document CHEMBL5370591, “A Potent and Narrow-Spectrum Antibacterial against Clostridioides difficile Infection” (J Med Chem, 2023)
≈ marks a conversion by molar mass, not a printed value. Calls of active or inactive are those of the source. The rule behind the calls is not given here.

Key:
Clostridioides difficile [1] = assay: Bactericidal activity against Clostridium difficile ATCC 43255 incubated for 48 hrs under anaerobic conditions; format: functional
[2] = Selectivity ratio of IC50 for human HepG2 cells to MIC for Clostridium difficile ATCC 43255; format: toxicity
Staphylococcus aureus [3] = assay: Antibacterial activity against ciprofloxacin/gentamicin/oxacillin/pencillin/linezolid resistant Staphylococcus aureus NRS119 assessed as inhibition of bacterial growth measured after 48 hrs by two fold serial dilution method; format: functional
Bacteroides fragilis = assay: Antibacterial activity against Bacteroides fragilis HM-709 assessed as inhibition of bacterial growth measured after 48 hrs by two fold serial dilution method; format: functional
Clostridioides difficile [4] = assay: Antibacterial activity against Clostridium difficile ATCC 43255 isolated from abdominal wound assessed as inhibition of bacterial growth measured after 48 hrs by two fold serial dilution method; format: functional
Streptococcus pyogenes = assay: Antibacterial activity against Streptococcus pyogenes ATCC 49399 assessed as inhibition of bacterial growth measured after 48 hrs by two fold serial dilution method; format: functional
Enterococcus faecium [5] = assay: Antibacterial activity against vancomycin susceptible Enterococcus faecium119-39A clinical isolate assessed as inhibition of bacterial growth measured after 48 hrs by two fold serial dilution method; format: functional; conditions: 119-39A
Clostridioides difficile [6] = assay: Antibacterial activity against Clostridium difficile BAA-1803 clinical isolate assessed as inhibition of bacterial growth measured after 48 hrs by two fold serial dilution method; format: functional
Enterococcus faecium [7] = assay: Antibacterial activity against vancomycin resistant Enterococcus faecium 106 clinical isolate assessed as inhibition of bacterial growth measured after 48 hrs by two fold serial dilution method; format: functional
[8] = tested on: Limosilactobacillus reuteri; assay: Antibacterial activity against Lactobacillus reuteri HM-102 assessed as inhibition of bacterial growth measured after 48 hrs by two fold serial dilution method; format: functional
Clostridioides difficile [9] = assay: Antibacterial activity against Clostridium difficile NR49310 isolated from human feces assessed as inhibition of bacterial growth measured after 48 hrs by two fold serial dilution method; format: functional
Clostridioides difficile [10] = assay: Antibacterial activity against Clostridium difficile 26675 clinical isolate assessed as inhibition of bacterial growth measured after 48 hrs by two fold serial dilution method; format: functional
Escherichia coli = assay: Antibacterial activity against Escherichia coli ATCC25922 assessed as inhibition of bacterial growth measured after 48 hrs by two fold serial dilution method; format: functional
Clostridioides difficile [11] = assay: Antibacterial activity against Clostridium difficile 23828 clinical isolate assessed as inhibition of bacterial growth measured after 48 hrs by two fold serial dilution method; format: functional
[12] = tested on: Staphylococcus haemolyticus; assay: Antibacterial activity against Staphylococcus haemolyticus ATCC 29970 assessed as inhibition of bacterial growth measured after 48 hrs by two fold serial dilution method; format: functional
Clostridioides difficile [13] = assay: Antibacterial activity against Clostridium difficile NR49305 isolated from human feces assessed as inhibition of bacterial growth measured after 48 hrs by two fold serial dilution method; format: functional
Clostridioides difficile [14] = assay: Induction of resistance against Clostridium difficile ATCC 43255 assessed as fold increase in MIC measured after 20 passages under anaerobic conditions; format: functional
Lactobacillus gasseri = assay: Antibacterial activity against Lactobacillus gasseri HM-644 assessed as inhibition of bacterial growth measured after 48 hrs by two fold serial dilution method; format: functional
Eubacterium sp. = assay: Antibacterial activity against Eubacterium sp. HM-178 assessed as inhibition of bacterial growth measured after 48 hrs by two fold serial dilution method; format: functional
Clostridioides difficile [15] = assay: Antibacterial activity against Clostridium difficile NR49294 isolated from human feces assessed as inhibition of bacterial growth measured after 48 hrs by two fold serial dilution method; format: functional
[16] = Selectivity ratio of IC50 for human THP-1 cells to MIC for Clostridium difficile ATCC 43255; format: toxicity
HepG2 = assay: Antiproliferative activity against human HepG2 cells assessed as inhibition of cell growth by XTT assay; format: functional, cell-based
Clostridioides difficile [17] = assay: Antibacterial activity against Clostridium difficile ATCC 43255 assessed as log reduction in bacterial growth at 1 to 8 times MIC measured upto 48 hrs under anaerobic condition; format: functional
Corynebacterium sp. = assay: Antibacterial activity against Corynebacterium sp. HM-784 assessed as inhibition of bacterial growth measured after 48 hrs by two fold serial dilution method; format: functional
Pseudomonas aeruginosa = assay: Antibacterial activity against Pseudomonas aeruginosa ATCC27853 assessed as inhibition of bacterial growth measured after 48 hrs by two fold serial dilution method; format: functional
Clostridioides difficile [18] = assay: Antibacterial activity against Clostridium difficile NR49318 isolated from human feces assessed as inhibition of bacterial growth measured after 48 hrs by two fold serial dilution method; format: functional
Clostridioides difficile [19] = assay: Antibacterial activity against Clostridium difficile ATCC 43255 assessed as as time duration of post-antibiotic effect for suppression of bacterial growth at 4 times MIC incubated for 1 hr in broth solution; format: functional
Clostridioides difficile [20] = assay: Induction of resistance against Clostridium difficile ATCC 43255 assessed as fold increase in MIC measured after 14 passages under anaerobic conditions; format: functional
[21] = Selectivity ratio of MBC for bactericidal activity against Clostridium difficile ATCC 43255 to MIC for antibacterial activity for Clostridium difficile ATCC 43255; format: functional, Clostridioides difficile
Clostridioides difficile [22] = assay: Antibacterial activity against Clostridium difficile NR49302 isolated from human feces assessed as inhibition of bacterial growth measured after 48 hrs by two fold serial dilution method; format: functional
Clostridioides difficile [23] = assay: Antibacterial activity against Clostridium difficile ATCC 43255 assessed as damage in cell wall at 8 time MIC incubated for 24 hrs by scanning electron microscopy based analysis; format: functional, organism-based
THP-1 = assay: Cytotoxicity against human THP-1 cells assessed as increase in LDH release incubate for 24 hrs by trypan-blue staining based analysis; format: functional, cell-based; conditions: THP-1, 24 h
Staphylococcus aureus [24] = assay: Antibacterial activity against methicillin/oxacillin/tetracycline resistant vancomycin resistant Staphylococcus aureus NRS100 assessed as inhibition of bacterial growth measured after 48 hrs by two fold serial dilution method; format: functional
Klebsiella aerogenes = assay: Antibacterial activity against Klebsiella aerogenes ATCC35029 assessed as inhibition of bacterial growth measured after 48 hrs by two fold serial dilution method; format: functional
Clostridioides difficile [25] = assay: Antibacterial activity against Clostridium difficile ATCC 43255 assessed as as time duration of post-antibiotic effect for suppression of bacterial growth at 2 times MIC incubated for 1 hr in broth solution; format: functional
Klebsiella pneumoniae = assay: Antibacterial activity against Klebsiella pneumoniae ATCC700603 assessed as inhibition of bacterial growth measured after 48 hrs by two fold serial dilution method; format: functional
Clostridioides difficile [26] = assay: Antibacterial activity against Clostridium difficile NR49292 assessed as inhibition of bacterial growth measured after 48 hrs by two fold serial dilution method; format: functional
Clostridioides difficile [27] = assay: Antibacterial activity against Clostridium difficile 24531 clinical isolate assessed as inhibition of bacterial growth measured after 48 hrs by two fold serial dilution method; format: functional
Acinetobacter baumannii = assay: Antibacterial activity against Acinetobacter baumannii ATCC17961 assessed as inhibition of bacterial growth measured after 48 hrs by two fold serial dilution method; format: functional
Clostridioides difficile [28] = assay: Induction of resistance against Clostridium difficile ATCC 43255 assessed as fold increase in MIC measured after 8 passages under anaerobic conditions; format: functional
Clostridioides difficile [29] = assay: Antibacterial activity against Clostridium difficile ATCC 43255 measured after 48 hrs by two fold serial dilution method; format: functional
Clostridioides difficile [30] = assay: Antibacterial activity against Clostridium difficile BAA-1870 assessed as inhibition of bacterial growth measured after 48 hrs by two fold serial dilution method; format: functional
Clostridioides difficile [31] = assay: Antibacterial activity against Clostridium difficile ATCC 43255 assessed as as time duration of post-antibiotic effect for suppression of bacterial growth at 8 times MIC incubated for 1 hr in broth solution; format: functional
Clostridioides difficile [32] = assay: Antibacterial activity against Clostridium difficile ATCC 43255 assessed as as time duration of post-antibiotic effect for suppression of bacterial growth at 1 time MIC incubated for 1 hr in broth solution; format: functional
Enterococcus faecalis = assay: Antibacterial activity against vancomycin resistant Enterococcus faecalis 99 clinical isolate assessed as inhibition of bacterial growth measured after 48 hrs by two fold serial dilution method; format: functional

Compound: O=[N+]([O-])c1c[nH]c(-c2nc(-c3ccc(OC4CCCC4)cc3)no2)n1
- MBC (Clostridioides difficile [1]): 0.5 µg/mL (≈ 1.46 µM)
- selectivity ratio [2]: 214
- MIC (Staphylococcus aureus [3]): 32 µg/mL (≈ 93.8 µM)
- MIC (Bacteroides fragilis): 128 µg/mL (≈ 375 µM)
- MIC (Clostridioides difficile [4]): 0.25 µg/mL (≈ 0.732 µM)
- MIC (Streptococcus pyogenes): > 128 µg/mL
- MIC (Enterococcus faecium [5]): 128 µg/mL (≈ 375 µM)
- MIC (Clostridioides difficile [6]): 0.125 µg/mL (≈ 0.366 µM)
- MIC (Enterococcus faecium [7]): 128 µg/mL (≈ 375 µM)
- MIC [8]: > 128 µg/mL
- MIC (Clostridioides difficile [9]): 0.25 µg/mL (≈ 0.732 µM)
- MIC (Clostridioides difficile [10]): 2 µg/mL (≈ 5.86 µM)
- MIC (Escherichia coli): > 128 µg/mL
- MIC (Clostridioides difficile [11]): 1 µg/mL (≈ 2.93 µM)
- MIC [12]: 32 µg/mL (≈ 93.8 µM)
- MIC (Clostridioides difficile [13]): 0.125 µg/mL (≈ 0.366 µM)
- fold change (FC) (Clostridioides difficile [14]): 8
- MIC (Lactobacillus gasseri): > 128 µg/mL
- MIC (Eubacterium sp.): 64 µg/mL (≈ 188 µM)
- MIC (Clostridioides difficile [15]): 0.5 µg/mL (≈ 1.46 µM)
- selectivity ratio [16]: > 512
- IC50 (HepG2): 53.4 µg/mL (≈ 156 µM)
- Activity (Clostridioides difficile [17]): 4 log10CFU/ml
- MIC (Corynebacterium sp.): > 128 µg/mL
- MIC (Pseudomonas aeruginosa): > 128 µg/mL
- MIC (Clostridioides difficile [18]): 0.5 µg/mL (≈ 1.46 µM)
- Time (Clostridioides difficile [19]): 7 h
- fold change (FC) (Clostridioides difficile [20]): 4
- Ratio [21]: 2
- MIC (Clostridioides difficile [22]): 0.25 µg/mL (≈ 0.732 µM)
- Activity (Clostridioides difficile [23]): Active
- IC50 (THP-1): > 128 µg/mL
- MIC (Staphylococcus aureus [24]): 64 µg/mL (≈ 188 µM)
- MIC (Klebsiella aerogenes): > 128 µg/mL
- Time (Clostridioides difficile [25]): 5 h
- MIC (Klebsiella pneumoniae): > 128 µg/mL
- MIC (Clostridioides difficile [26]): 0.125 µg/mL (≈ 0.366 µM)
- MIC (Clostridioides difficile [27]): 0.125 µg/mL (≈ 0.366 µM)
- MIC (Acinetobacter baumannii): > 128 µg/mL
- fold change (FC) (Clostridioides difficile [28]): 2
- MIC (Clostridioides difficile [29]): 0.25 µg/mL (≈ 0.732 µM)
- MIC (Clostridioides difficile [30]): 0.125 µg/mL (≈ 0.366 µM)
- Time (Clostridioides difficile [31]): 7 h
- Time (Clostridioides difficile [32]): 3 h
- MIC (Enterococcus faecalis): 128 µg/mL (≈ 375 µM)
